Legend:
[1] = Serum DHA pharmacokinetics after 4 weeks of supplementation with DHA formulations; conditions: human, in vivo
[2] = Serum EPA pharmacokinetics after 4 weeks of supplementation with DHA formulations; conditions: human, in vivo
[3] = test system: liver lipid metabolism; assay: Serum triglycerides, DHA and carotenoid-SFA formulations, trial for 4 weeks; format: in vivo, human
[4] = test system: liver lipid metabolism; assay: Serum LDL cholesterol, DHA and carotenoid-SFA formulations, trial for 4 weeks; format: in vivo, human
[5] = test system: blood markers of oxidative and inflammatory damage; assay: IOD blood marker, DHA and carotenoid-SFA formulations, trial for 4 weeks; format: in vivo, human
Description: (§1) Since DHA itself has antioxidant and anti-inflammatory properties it was important to assess whether its formulation with carotenoids and SFA would change them. Comparison of the effects of DHA and its new formulations on blood markers of oxidative and inflammatory damage is presented in Table 7.

[6] = test system: LDL; assay: LDL-Px blood marker, DHA and carotenoid-SFA formulations, trial for 4 weeks; format: in vivo, human
Description: as §1
It is worth pointing out that the real synergetic effect may be even more profound, because in both of those carotenoid-SFA formulations only half of the dose of the control DHA was used.

[7] = publicly available trans-resveratrol formulations; cited from earlier work

SMILES: CC/C=C\C/C=C\C/C=C\C/C=C\C/C=C\C/C=C\CCC(=O)O [DHA 500 mg, docosahexaenoic acid]
- concentration at 0 weeks [1]: 106 ± 11 µg/mL
- concentration at 2 weeks [1]: 134 ± 12 µg/mL
- concentration at 4 weeks [1]: 108 ± 12 µg/mL
- Increase in serum DHA ([1]; 2 weeks): 26%
- Δ serum DHA vs 0 w ([1]; 2 weeks): Δ = +28 μg/ml
- Δ serum DHA vs 0 w ([1]; 4 weeks): Δ = +2 μg/ml
- Combined increase in serum EPA [2]: 11.6 µg/mL
- Serum EPA ([2]; 0 weeks): 56.5 ± 6.2 µg/mL
- Increase in serum EPA ([2]; 2 weeks): 21%
- Serum EPA ([2]; 2 weeks): 68.1 ± 7.4 µg/mL
- Δ serum EPA vs 0 w ([2]; 2 weeks): Δ = +11.6 μg/ml
- Serum EPA ([2]; 4 weeks): 35.8 ± 5.3 µg/mL
- Triglycerides ([3]; 0 w): 197 ± 18 mg/dL
- Triglycerides ([3]; 4 w): 184 ± 17 mg/dL
- Triglycerides, % of baseline ([3]; 4 w): 93%
- Δ Triglycerides vs 0 w ([3]; 4 w): Δ = −13 mg/dL
- Reduction of serum triglycerides ([3]; 4 weeks): 13 mg/dL
- LDL cholesterol ([4]; 0 w): 154 ± 16 mg/dL
- LDL cholesterol ([4]; 4 w): 149 ± 15 mg/dL
- Δ LDL cholesterol vs 0 w ([4]; 4 w): Δ = −5 mg/dL
- IOD in MDA ([5]; 0 w): 165 ± 18 µM
- IOD in MDA ([5]; 4 w): 107 ± 11 µM
- IOD, % of baseline ([5]; 4 w): 65%
- Δ IOD vs 0 w ([5]; 4 w): Δ = −58 μM
- LDL-Px ([6]; 0 w): 700 ± 76 ELISA × 10^3
- LDL-Px ([6]; 4 w): 265 ± 27 ELISA × 10^3
- LDL-Px, % of baseline ([6]; 4 w): 38%
- Δ LDL-Px vs 0 w ([6]; 4 w): Δ = −435 ELISA × 10^3

SMILES: CC(C)=CCC/C(C)=C/C=C/C(C)=C/C=C/C(C)=C/C=C/C=C(C)/C=C/C=C(C)/C=C/C=C(\C)CCC=C(C)C [Lycopene 7 mg, Lycopene]
- Triglycerides ([3]; 0 w): 155 ± 12 mg/dL
- Triglycerides ([3]; 4 w): 150 ± 13 mg/dL
- Triglycerides, % of baseline ([3]; 4 w): 97%
- Δ Triglycerides vs 0 w ([3]; 4 w): Δ = −5 mg/dL
- Change in triglyceride concentrations ([3]; end of the 4-week trial): no significant change
- LDL cholesterol ([4]; 0 w): 158 ± 17 mg/dL
- LDL cholesterol ([4]; 4 w): 154 ± 16 mg/dL
- Δ LDL cholesterol vs 0 w ([4]; 4 w): Δ = −4 mg/dL
- Effect on serum LDL level ([4]; 4 weeks): did not affect level of LDL
- IOD in MDA ([5]; 0 w): 111 ± 12 µM
- IOD in MDA ([5]; 4 w): 79 ± 9 µM
- IOD, % of baseline ([5]; 4 w): 71%
- Δ IOD vs 0 w ([5]; 4 w): Δ = −32 μM
- LDL-Px ([6]; 0 w): 133 ± 19 ELISA × 10^3
- LDL-Px ([6]; 4 w): 115 ± 14 ELISA × 10^3
- LDL-Px, % of baseline ([6]; 4 w): 86%
- Δ LDL-Px vs 0 w ([6]; 4 w): Δ = −18 ELISA × 10^3

SMILES: Oc1ccc(/C=C/c2cc(O)cc(O)c2)cc1 [trans-resveratrol]
- Fraction bioavailable after oral consumption [7]: 5%
